A short description of data set [1]: pKa of prior-art pH sensitive cyanine dyes (literature). Format: physicochemical. The following applies: worked out from literature pKa.
The conditions of data set [2]: literature value; cited from earlier work.
A short description of data set [3]: pK assessment from absorbance/emission versus pH in phosphate buffers. The format is physicochemical. The following applies: for pKa: phosphate buffers at different pH, inflection point of absorbance vs pH, phosphate buffers, read-out: pKa (by abs). As to the method:
From the analysis of the variation of the absorbance and emission with respect to the variation of pH, it was possible to calculate the pKa of the dyes of the invention as the inflection point of the interpolated curve.
All the pH buffers used for the experiment were phosphate based buffers and each pH point has been accurately checked with pH-meter. First the cyanine powder was dissolved in water at ca. 1 mg/mL concentration and then 10 μL of this mother solution were added to 1 ml of phosphate buffers at different pH, previously prepared mixing ortophosphoric acid and sodium hydroxide in the right amount to reach the desired pH. The diluted cyanine buffered solutions were then sampled and transferred into a 96 wells plate (clear for the absorbance measurements and dark for the emission measurements) for the analyses. By plotting for each solution the value of the absorbance at the maximum of the active form, for instance 780 nm for Compound 5, vs. the pH of the solution, a polynomial cubic curve was obtained, whose flex corresponds to the pKa value of the cyanine.

Data set [4] is described as follows: Optical characterization (absorbance, excitation and emission spectra, microplate reader). The format is physicochemical. The following applies: phosphate buffer; for Abs. Max. / Em. Max.: maximum of the active form. As to the method:
All commercially available reagents used in the synthesis were obtained from Sigma Aldrich and TCI and they were used without further purification. c(RGDfK) was purchased from Apex Bio or Bachem. All the reactions were followed by HPLC (Agilent mod. 1100/1200) and HPLC-MS (Agilent mod. 1260, Quadrupole LC/MSD Mod. 6120) equipped with an absorption detector set at different wavelengths (Column: YMC-Triart Phenyl, 250×4.6 mm/S-5 μm/12 nm). Purifications were performed by flash chromatography on an automated purification system (CombiFlash® Rf+), using pre-packed silica C18 cartridges (Biotage® or Phenomenex) or by preparative HPLC on preparative YMC-Triart Phenyl column. Absorbance, excitation and emission values were assessed in a well plate reader to speed-up the measurements (SPARK).
Optical characterization was performed for each compound with Spark® multimode microplate reader, registering with specific 96-wells plate the absorbance, excitation and emission spectra of the fluorophore buffered in phosphate buffer at several pH, ranging from 3 to 8.
In particular, the absorbance, excitation and emission maxima of representative compounds of formula (I) and conjugates of formula (II) are shown in Table III.

Data set [5] in a line: Residual fluorescence at different pH relative to pH 3. The following applies: unit assumed; for Em. at pH 5/Em at pH 3: fluorescence at pH 5 relative to maximum at pH 3; for Em. at pH 6/Em at pH 3: fluorescence at pH 6 relative to maximum at pH 3; for Em. at pH 7.5/Em at pH 3: fluorescence at pH 7.5 relative to maximum at pH 3. The format is physicochemical. On the procedure:
The ratio of the fluorescence at different pH (5, 6 and 7.5) with respect to the maximum fluorescence collected at pH 3 (highly acidic) was calculated for several representative compounds of the invention and the results are reported in the following Table V. The results were also compared to the values calculated for the non-alkylated Reference Compound A.

This is an account of results in patent publication US20240131199A1, “PH RESPONSIVE CYANINE DYES AND CONJUGATES THEREOF” (BRACCO IMAGING S.P.A., priority 2020, published 2024).

Structures are written as SMILES. Read-outs that look alike come from different tables or passages of the source.

As for `CC1(C)C(/C=C/C2=C(c3ccc(C(=O)O)cc3)C(=C/C=C3/Nc4ccc(S(=O)(=O)O)cc4C3(C)C)/CCC2)=Nc2ccc(S(=O)(=O)O)cc21` [B], the “pH at which 95% protonation is achieved” value in data set [1] is recorded as 4.2. Moreover, the pKa in data set [2] was 5.2.

Turning to `CC(CC[N+]1=C(/C=C/C2=C(Cl)C(=C/C=C3/Nc4ccc(S(=O)(=O)O)cc4C3(C)C)/CCC2)C(C)(C)c2cc(C(=O)O)ccc21)S(=O)(=O)[O-]` (centres unmarked) [Compound 1], in data set [3], the pKa is 6. In data set [4], the “Exc. Max.” value came out at 783 nm, the “Abs. Max.” value came out at 784 nm and the “Em. Max.” value was determined as 804 nm. In data set [5], this compound showed an Em. at pH 5/Em at pH 3 of 104%, an Em. at pH 6/Em at pH 3 of 55% and an Em. at pH 7.5/Em at pH 3 of 9%.

For `CC(CC[N+]1=C(/C=C/C2=C(Cl)C(=C/C=C3/Nc4ccc(S(=O)(=O)O)cc4C3(C)C)/CCC2)C(C)(C)c2cc(C(=O)NCC(O)C(O)C(O)C(O)CO)ccc21)S(=O)(=O)[O-]` (centres unmarked) [Compound 3], in data set [4], the “Exc. Max.” value is listed as 780 nm, the “Abs. Max.” value was found to be 782 nm and the “Em. Max.” value is 807 nm.

As for `CC1(C)C(/C=C/C2=C(c3ccc(C(=O)NCCS(=O)(=O)O)cc3)C(=C/C=C3/Nc4ccc(S(=O)(=O)O)cc4C3(C)C)/CCC2)=[N+](CCCCCC(=O)O)c2ccc(S(=O)(=O)[O-])cc21` [Compound 4], in data set [3], the pKa is 6.4.

Take `CC1(C)C(/C=C/C2=C(Cl)C(=C/C=C3/Nc4ccc(S(=O)(=O)O)cc4C3(C)C)/CCC2)=[N+](CCCCCC(=O)O)c2ccc(S(=O)(=O)[O-])cc21` [Compound 5]: the “pKa (from emission vs pH)” value in data set [3] (emission at 804 nm vs pH, second source of data) was “same value of pKa”. For the same compound, the pKa in data set [3] came to 5.9.

For the compound `CC1(C)C(/C=C/C2=C(Cl)C(=C/C=C3/Nc4ccc(S(=O)(=O)[O-])cc4C3(C)C)/CCC2)=[N+](CCCCCC(=O)O)c2ccc(C(=O)NCC(O)C(O)C(O)C(O)CO)cc21` (centres unmarked) [Compound 6], the pKa in data set [3] came out at 6.

Take `CC1(C)C(/C=C/C2=C(Cl)C(=C/C=C3/N(CCCCCC(=O)O)c4ccc(C(=O)NCC(O)C(O)C(O)C(O)CO)cc4C3(C)C)/CCC2)=Nc2ccc(C(=O)NCC(O)C(O)C(O)C(O)CO)cc21` (centres unmarked) [Compound 7]: the pKa in data set [3] came to 6.1.

As for `CC1(C)C(/C=C/C=C/C=C/C=C2/Nc3ccc(S(=O)(=O)O)cc3C2(C)C)=[N+](CCCCCC(=O)O)c2ccc(S(=O)(=O)O)cc21` [Compound 8], in data set [3], the pKa amounted to 6. For the same compound, in data set [4], the “Exc. Max.” value came out at 740 nm, the “Abs. Max.” value is listed as 742 nm and the “Em. Max.” value is 777 nm. In data set [5], this compound returned an Em. at pH 5/Em at pH 3 of 96%, an Em. at pH 6/Em at pH 3 of 66% and an Em. at pH 7.5/Em at pH 3 of 10%.

`CC1(C)C(/C=C/C(Cl)=C/C=C2/N(CCCCCC(=O)O)c3ccc4c(S(=O)(=O)O)cc(S(=O)(=O)O)cc4c3C2(C)C)=Nc2ccc3c(S(=O)(=O)O)cc(S(=O)(=O)O)cc3c21` [Compound 9]: in data set [3], the pKa came to 6.7.

On to `CC1(C)C(/C=C/C2=C(Cl)C(=C/C=C3/Nc4ccc(S(=O)(=O)O)cc4C3(C)C)/CCC2)=[N+](CCCCCC(=O)NCCCCC2NC(=O)[C@@H](Cc3ccccc3)NC(=O)[C@H](CC(=O)O)NC(=O)CNC(=O)[C@H](CCCNC(=N)N)NC2=O)c2ccc(S(=O)(=O)[O-])cc21` (some centres unmarked) [Compound 10], for which the pKa in data set [3] was found to be 5.8.

Turning to `CC1(C)C(/C=C/C2=C(Cl)C(=C/C=C3/Nc4ccc(S(=O)(=O)O)cc4C3(C)C)/CCC2)=[N+](CCCCCC(=O)NCCCCC2NC(=O)[C@@H](Cc3ccccc3)NC(=O)[C@H](CC(=O)O)NC(=O)CNC(=O)[C@H](CCCNC(=N)N)NC2=O)c2ccc(C(=O)NCC(O)C(O)C(O)C(O)CO)cc21` (some centres unmarked) [Compound 11], in data set [3], the pKa was 6.3.

For `CC1(C)C(/C=C/C2=C(Cl)C(=C/C=C3/Nc4ccc(C(=O)NCC(O)C(O)C(O)C(O)CO)cc4C3(C)C)/CCC2)=[N+](CCCCCC(=O)NCCCCC2NC(=O)[C@@H](Cc3ccccc3)NC(=O)[C@H](CC(=O)O)NC(=O)CNC(=O)[C@H](CCCNC(=N)N)NC2=O)c2ccc(C(=O)NCC(O)C(O)C(O)C(O)CO)cc21` (some centres unmarked) [Compound 12], in data set [4], the “Exc. Max.” value is recorded as 790 nm, the “Abs. Max.” value is recorded as 793 nm and the “Em. Max.” value is given as 814 nm.

With `CC1(C)C(/C=C/C=C/C=C2/Nc3ccc(S(=O)(=O)O)cc3C2(C)CCCCCC(=O)O)=[N+](CCCCS(=O)(=O)O)c2ccc(S(=O)(=O)O)cc21` (centres unmarked) [CypHer5E], the pKa in data set [2] is given as around 7.3.

Regarding `CC1(C)C(/C=C/C2=C(Cl)C(=C/C=C3/Nc4ccc(S(=O)(=O)O)cc4C3(C)C)/CCC2)=Nc2ccc(S(=O)(=O)O)cc21` [Reference Compound A, reference compound], the “pH at which 95% protonation is achieved” value in data set [1] worked out at 3.7. Further, in data set [3], the pKa amounted to 4.6. In data set [5], this compound registered an Em. at pH 5/Em at pH 3 of 40%, an Em. at pH 6/Em at pH 3 of 10% and an Em. at pH 7.5/Em at pH 3 of 1%. Besides, the pKa in data set [2] was 4.7.

For the compound `CC[N+]1=C(/C=C/C=C/C=C2/Nc3ccc(CC(=O)O)cc3C2(C)C)C(C)(C)c2cc(S(=O)(=O)[O-])ccc21` [pentamethine cyanine dye], the pKa in data set [2] is recorded as 7.5.

As usually defined, the pKa is the pH at which an ionisable group is half protonated.
